From patent publication US20120121540A1 (priority 2007, published 2012)

Test: HCV replicon assay (luciferase reporter, ET cell line)
Assay type: cell-based
Settings: Hepatitis C virus, HCV replicon luciferase activity in ET cells
Procedure, shortened: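 EC50 and, via WST-1 cytotoxicity, TC50 were fitted with a Hill-coefficient equation to % inhibition across 10 two-fold dilutions. Compounds at 0.1 nM-[…] with 0.5% DMSO were applied 24 h post-seeding to replicon-bearing ET cells (luc-ubi-neo/NS3-5B, adaptive mutations). Firefly luciferase signal was measured after 48-72 h.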

Structure (SMILES)	inhibition at 10 µM [%]
CS(=O)(=O)N1CC(NC(=O)c2nc3c(C(F)(F)F)cc(-c4ccoc4)cn3c2Cl)C1 [Compound 510, 3-Chloro-6-furan-3-yl-8-trifluoromethyl-imidazo[1,2-a]pyridine-2-carboxylic Acid (1-methanesulfonyl-azetidin-3-yl)-amide]	24
O=C(NC1CN(S(=O)(=O)c2ccccc2)C1)c1nc2c(C(F)(F)F)cc(-c3ccoc3)cn2c1Cl [Compound 511, 3-Chloro-6-furan-3-yl-8-trifluoromethyl-imidazo[1,2-a]pyridine-2-carboxylic Acid (1-benzenesulfonyl-azetidin-3-yl)-amide]	98.6
O=C(NC1CN(C(=O)Cc2ccccc2)C1)c1nc2c(C(F)(F)F)cc(-c3ccoc3)cn2c1Cl [Compound 514, 3-Chloro-6-furan-3-yl-8-trifluoromethyl-imidazo[1,2-a]pyridine-2-carboxylic Acid (1-phenylacetyl-azetidin-3-yl)-amide]	6.6
CS(=O)(=O)NC1CN(C(=O)c2cn3cc(-c4ccoc4)cc(C(F)(F)F)c3n2)C1 [Compound 519, N-[1-(6-Furan-3-yl-8-trifluoromethyl-imidazazo[1,2-a]pyridine-2-carbonyl)-azetidin-3-yl]-methanesulfonamide]	84.7
CS(=O)(=O)NC1CN(C(=O)c2nc3c(C(F)(F)F)cc(-c4cn[nH]c4)cn3c2Cl)C1 [Compound 521, N-{1-[3-Chloro-6-(1H-pyrazol-4-yl)-8-trifluoromethyl-imidazo[1,2-a]pyridine-2-carbonyl]-azetidin-3-yl}-methanesulfonamide]	72.8
CS(=O)(=O)NC1CN(C(=O)c2nc3c(C(F)(F)F)cc(-c4cn[nH]c4)cn3c2Br)C1 [Compound 522, N-{1-[3-Bromo-6-(1H-pyrazol-4-yl)-8-trifluoromethyl-imidazo[1,2-a]pyridine-2-carbonyl]-azetidin-3-yl}-methanesulfonamide]	88.6
O=C(c1nc2c(C(F)(F)F)cc(-c3cc[nH]c3)cn2c1Cl)N1CCC(c2cccc(F)c2)C1 (stereo not drawn) [Compound 524, [3-Chloro-6-(1H-pyrrol-3-yl)-8-trifluoromethyl-imidazo[1,2-a]pyridin-2-yl]-[3-(3-fluoro-phenyl)-pyrrolidin-1-yl]methanone]	91
O=C(c1nc2c(C(F)(F)F)cc(-c3c[nH]c4ccccc34)cn2c1Cl)N1CCC(c2cccc(F)c2)C1 (stereo not drawn) [Compound 525, [3-Chloro-6-(1H-indol-3-yl)-8-trifluoromethyl-imidazo[1,2-a]pyridin-2-yl]-[3-(3-fluoro-phenyl)-pyrrolidin-1-yl]methanone]	23.4
O=C(c1nc2c(C(F)(F)F)cc(-c3ccoc3)cn2c1Cl)N1CCN(c2ccccc2F)CC1 [Compound 529, (3-Chloro-6-furan-3-yl-8-trifluoromethyl-imidazo[1,2-a]pyridine-2-yl)-[4-(2-fluoro-phenyl)-piperazin-1-yl]-methanone]	78.9
O=C(c1nc2c(C(F)(F)F)cc(-c3ccoc3)cn2c1Cl)N1CCN(c2ccc(F)cc2)CC1 [Compound 530, (3-Chloro-6-furan-3-yl-8-trifluoromethyl-imidazo[1,2-a]pyridine-2-yl)-[4-(4-fluoro-phenyl)-piperazin-1-yl]-methanone]	80.3
O=C(c1nc2c(C(F)(F)F)cc(-c3ccoc3)cn2c1Cl)N1CCN(c2cccc(F)c2)CC1 [Compound 531, (3-Chloro-6-furan-3-yl-8-trifluoromethyl-imidazo[1,2-a]pyridine-2-yl)-[4-(3-fluoro-phenyl)-piperazin-1-yl]-methanone]	79.3
O=C(c1nc2c(C(F)(F)F)cc(-c3ccoc3)cn2c1Cl)N1CCN(c2ccccn2)CC1 [Compound 532, (3-Chloro-6-furan-3-yl-8-trifluoromethyl-imidazo[1,2-a]pyridine-2-yl)-[4-pyridin-2-yl-piperazin-1-yl]-methanone]	79.1
O=C(c1nc2c(C(F)(F)F)cc(-c3ccoc3)cn2c1Cl)N1CCN(c2ccncc2)CC1 [Compound 533, (3-Chloro-6-furan-3-yl-8-trifluoromethyl-imidazo[1,2-a]pyridine-2-yl)-[4-pyridin-4-yl-piperazin-1-yl]-methanone]	23.4
O=C(c1nc2c(C(F)(F)F)cc(-c3ccoc3)cn2c1Cl)N1CCN(c2ccccc2)CC1 [Compound 534, (3-Chloro-6-furan-3-yl-8-trifluoromethyl-imidazo[1,2-a]pyridine-2-yl)-(4-phenyl-piperazin-1-yl)-methanone]	77.6
O=C(c1nc2c(C(F)(F)F)cc(-c3ccoc3)cn2c1Cl)N1CCC(c2ccccc2)CC1 [Compound 535, (3-Chloro-6-furan-3-yl-8-trifluoromethyl-imidazo[1,2-a]pyridine-2-yl)-(4-phenyl-piperidin-1-yl)-methanone]	86.6
O=C(c1nc2c(C(F)(F)F)cc(-c3ccoc3)cn2c1Cl)N1CCN(c2nccs2)CC1 [Compound 536, (3-Chloro-6-furan-3-yl-8-trifluoromethyl-imidazo[1,2-a]pyridine-2-yl)-(4-thiazol-2-yl-piperazin-1-yl)-methanone]	95.8
O=C(c1nc2c(C(F)(F)F)cc(-c3ccoc3)cn2c1Cl)N1CCN(c2cnccn2)CC1 [Compound 537]	61

Structure (SMILES)	inhibition at 10 µM [%]
O=C(c1nc2c(C(F)(F)F)cc(-c3ccoc3)cn2c1Cl)N1CCN(c2ccc(F)c(F)c2)CC1 [Compound 538]	78.3
O=C(c1nc2c(C(F)(F)F)cc(-c3ccoc3)cn2c1Cl)N1CCN(c2ccc(C(F)(F)F)cc2)CC1 [Compound 539]	78.9
N#Cc1ccccc1C1CCN(C(=O)c2nc3c(C(F)(F)F)cc(-c4ccoc4)cn3c2Cl)CC1 [Compound 540, 2-[1-(3-Chloro-6-furan-3-yl-8-trifluoromethyl-imidazo[1,2-a]pyridine-2-carbonyl)-piperidin-4-yl]-benzonitrile]	98.6
O=C(c1nc2c(C(F)(F)F)cc(-c3ccoc3)cn2c1Cl)N1CCC(c2ccccc2Cl)CC1 [Compound 541, (3-Chloro-6-furan-3-yl-8-trifluoromethyl-imidazo[1,2-a]pyridin-2-yl)-[4-(2-chloro-phenyl)-piperidin-1-yl]-methanone]	89.7
Cc1ccccc1C1CCN(C(=O)c2nc3c(C(F)(F)F)cc(-c4ccoc4)cn3c2Cl)CC1 [Compound 542, (3-Chloro-6-furan-3-yl-8-trifluoromethyl-imidazo[1,2-a]pyridin-2-yl)-(4-o-tolyl-piperidin-1-yl)-methanone]	72.4
O=C(c1nc2c(C(F)(F)F)cc(-c3ccoc3)cn2c1Cl)N1CCN(c2cccnc2)CC1 [Compound 543, (3-Chloro-6-furan-3-yl-8-trifluoromethyl-imidazo[1,2-a]pyridin-2-yl)-(4-pyridin-3-yl-piperazin-1-yl)-methanone]	91.2
O=C(c1nc2c(C(F)(F)F)cc(-c3ccoc3)cn2c1Cl)N1CCCCC1c1ccccc1F (stereo not drawn) [Compound 544, (3-Chloro-6-furan-3-yl-8-trifluoromethyl-imidazo[1,2-a]pyridin-2-yl)-[2-(2-fluoro-phenyl)-piperidin-1-yl)-methanone]	75.4
O=C(c1nc2c(C(F)(F)F)cc(-c3ccoc3)cn2c1Cl)N1CCCCC1c1cccc(F)c1 (stereo not drawn) [Compound 545, (3-Chloro-6-furan-3-yl-8-trifluoromethyl-imidazo[1,2-a]pyridin-2-yl)-[2-(3-fluoro-phenyl)-piperidin-1-yl)-methanone]	70.2
O=C(c1nc2c(C(F)(F)F)cc(-c3ccoc3)cn2c1Cl)N1CCCC(c2ccccc2F)C1 (stereo not drawn) [Compound 547, (3-Chloro-6-furan-3-yl-8-trifluoromethyl-imidazo[1,2-a]pyridin-2-yl)-[3-(2-fluoro-phenyl)-piperidin-1-yl)-methanone]	94.7
O=C(c1nc2c(C(F)(F)F)cc(-c3ccoc3)cn2c1Cl)N1CCCC(c2ccc(F)cc2)C1 (stereo not drawn) [Compound 548, (3-Chloro-6-furan-3-yl-8-trifluoromethyl-imidazo[1,2-a]pyridin-2-yl)-[3-(4-fluoro-phenyl)-piperidin-1-yl)-methanone]	91.2
O=C(c1nc2c(C(F)(F)F)cc(-c3ccoc3)cn2c1Cl)N1CCCC(c2cccc(F)c2)C1 (stereo not drawn) [Compound 549, (3-Chloro-6-furan-3-yl-8-trifluoromethyl-imidazo[1,2-a]pyridin-2-yl)-[3-(3-fluoro-phenyl)-piperidin-1-yl)-methanone]	94.3
COc1ccccc1C1CCN(C(=O)c2nc3c(C(F)(F)F)cc(-c4ccoc4)cn3c2Cl)CC1 [Compound 550, (3-Chloro-6-furan-3-yl-8-trifluoromethyl-imidazo[1,2-a]pyridin-2-yl)-[4-(2-methoxy-phenyl)-piperidin-1-yl)-methanone]	64.8
O=C(c1nc2c(C(F)(F)F)cc(-c3ccoc3)cn2c1Cl)N1CCN(c2noc3ccccc23)CC1 [Compound 551, (4-Benzo[d]isoxazol-3-yl-piperazin-1-yl)-(3-Chloro-6-furan-3-yl-8-trifluoromethyl-imidazo[1,2-a]pyridine-2-yl)-methanone]	38.5
O=C(c1nc2c(C(F)(F)F)cc(-c3ccoc3)cn2c1Cl)N1CCC(n2c(=O)[nH]c3ccccc32)CC1 [Compound 552, 1-[1-(3-Chloro-6-furan-3-yl-8-trifluoromethyl-imidazo[1,2-a]pyridine-2-carbonyl)-piperidin-4-yl]-1,3-dihydro-benzoimidazol-2-one]	6
O=C(c1nc2c(C(F)(F)F)cc(-c3ccoc3)cn2c1Cl)N1CCC(n2cc(-c3ccccc3)[nH]c2=O)CC1 [Compound 553, 1-[1-(3-Chloro-6-furan-3-yl-8-trifluoromethyl-imidazo[1,2-a]pyridine-2-carbonyl)-piperidin-4-yl]-4-phenyl-1,3-dihydro-imidazol-2-one]	43.6
O=C(NCCc1ccccn1)c1nc2c(C(F)(F)F)cc(-c3ccoc3)cn2c1Cl [Compound 554, 3-Chloro-6-furan-3-yl-8-trifluoromethyl-imidazo[1,2-a]pyridine-2-carboxylic acid (2-pyridin-2-yl-ethyl)-amide]	97.4
